Measurements reported in patent publication US20080187508A1, “Treatment of Golmerular Basement Membrane Disease Involving Matrix Metalloproteinase-12” (BOYS TOWN NATIONAL RESEARCH HOSPITAL, priority 2004, published 2008).
“Also recorded” adds a separate entry of the source. Structures can show the parent of a compound that is named as a salt. Where two headings read alike, the source gives them in different places.

Columns and labels:
wide range of MMPs = details: in vitro; cited from earlier work
Alport mice = assay: transmission electron microscopy of glomerular basement membrane of treated Alport mice; format: in vivo, mouse; details: Alport mice treated with MMP inhibitor from 4 to 7 weeks of age, electron microscopy
Method: The Alport mouse model has been described (Cosgrove et al. (1996) Genes Dev. 10, 2981-2992). The control mice used were normal for both collagen α3(IV) alleles, and are a product of double heterozygote crosses for the Alport mutation. The use of animals in this study was performed in accordance with an approved institutional IACUC protocol. Extreme care was taken to minimize pain and discomfort suffered by the mice. MMP inhibitors were administered between 4 and 7 weeks of age. All drugs were freshly prepared prior to administration. BAY 129566 was emulsified in suspension with 0.5% carboxymethyl cellulose and 4 mg given once a day by oral gavage. MMI-270 was solubilized in 0.9% saline and administered by I.P. injection (50 μg/g body weight) once a day. Transmission electron microscopy was performed as previously described (Cosgrove et al., 1996, Genes Dev. 10, 2981-2992). Ultrastructural localization studies of type IV collagen were performed essentially as previously described (Bhattacharya et al., 2002). Kidneys from 7-week-old control and Alport mice were fixed by heart perfusion with 2% paraformaldehyde in PBS, and post-fixed in this same solution overnight. Ultrathin (70 nm) sections were reacted for 4 hours at room temperature with goat anti-collagen IV antibodies (Southern Biotechnology, Birmingham, Ala.). After six 10 minute washes in PBS, specimen were reacted for 2 hours at room temperature with 10 nanometers (nm) gold-conjugated anti-rabbit antibodies (Vector Laboratories, Burlingame, Calif.). Grids were washed as before, air-dried, counterstained with uranyl acetate, and examined using transmission electron microscopy. Propagermanium (3-oxygemylpropinic acid polymer, Sanwa Kagaku Kenkyusho Co., Nagoya, Japan) was administered orally (10 milligrams per kilogram (mg/kg) in 1% gelatin) by gavage once daily starting at 5 weeks of age, and kidneys harvested at 7 weeks of age. Three animals per group, Alport mice and control litter mates, gavaged with drug or vehicle only, were analyzed. […] Proteolytic degradation of the GBM in Alport syndrome might underlie the progressive irregular GBM damage and podocyte foot process effacement. Type IV collagen from Alport kidneys is more susceptible to proteolytic degradation in vitro than type IV collagen from healthy kidneys (Kalluri et al. (1997) J. Clin. Invest. 99, 2470-2478, presumably owing to the reduced number of interchain disulfide crosslinks (Gunwar et al. (1998) J. Biol. Chem. 273, 8767-8775).

MMP-2 = target: T1, MMP-2 (Homo sapiens, UniProt P08253); details: hydrochloride monohydrate; cited from earlier work
T1 sequence (P08253 110-660): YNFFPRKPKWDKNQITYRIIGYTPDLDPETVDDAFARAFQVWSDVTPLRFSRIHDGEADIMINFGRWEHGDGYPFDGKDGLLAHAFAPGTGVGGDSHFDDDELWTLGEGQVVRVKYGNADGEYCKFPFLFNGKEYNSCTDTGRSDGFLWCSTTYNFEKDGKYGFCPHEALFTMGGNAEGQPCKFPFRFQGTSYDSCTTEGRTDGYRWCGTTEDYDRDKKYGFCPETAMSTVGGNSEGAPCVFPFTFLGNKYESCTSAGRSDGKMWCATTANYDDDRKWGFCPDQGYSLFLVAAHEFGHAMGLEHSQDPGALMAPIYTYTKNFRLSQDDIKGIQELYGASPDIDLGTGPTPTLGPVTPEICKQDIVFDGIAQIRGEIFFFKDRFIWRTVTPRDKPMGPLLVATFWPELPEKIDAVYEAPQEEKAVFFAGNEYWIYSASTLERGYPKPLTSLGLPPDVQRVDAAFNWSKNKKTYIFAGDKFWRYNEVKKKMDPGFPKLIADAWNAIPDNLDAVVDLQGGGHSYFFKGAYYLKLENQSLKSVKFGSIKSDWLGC

MMP-12 = MMP-12 (Homo sapiens, UniProt P39900); details: cited from earlier work
Sequence of MMP-12 (P39900 106-470, species assumed): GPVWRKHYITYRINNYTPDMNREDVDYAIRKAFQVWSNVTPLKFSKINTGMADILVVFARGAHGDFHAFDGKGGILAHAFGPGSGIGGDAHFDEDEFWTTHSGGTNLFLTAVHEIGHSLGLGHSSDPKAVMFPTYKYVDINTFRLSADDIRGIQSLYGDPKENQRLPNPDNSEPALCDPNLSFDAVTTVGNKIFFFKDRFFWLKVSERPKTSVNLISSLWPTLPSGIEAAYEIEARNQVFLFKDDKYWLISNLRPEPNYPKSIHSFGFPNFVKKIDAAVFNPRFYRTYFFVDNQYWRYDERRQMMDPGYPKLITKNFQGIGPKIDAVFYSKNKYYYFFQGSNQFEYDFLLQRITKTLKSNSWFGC

MMP-9 = MMP-9 (Homo sapiens, UniProt P14780); details: hydrochloride monohydrate; cited from earlier work
Sequence of MMP-9 (P14780 94-707, species assumed): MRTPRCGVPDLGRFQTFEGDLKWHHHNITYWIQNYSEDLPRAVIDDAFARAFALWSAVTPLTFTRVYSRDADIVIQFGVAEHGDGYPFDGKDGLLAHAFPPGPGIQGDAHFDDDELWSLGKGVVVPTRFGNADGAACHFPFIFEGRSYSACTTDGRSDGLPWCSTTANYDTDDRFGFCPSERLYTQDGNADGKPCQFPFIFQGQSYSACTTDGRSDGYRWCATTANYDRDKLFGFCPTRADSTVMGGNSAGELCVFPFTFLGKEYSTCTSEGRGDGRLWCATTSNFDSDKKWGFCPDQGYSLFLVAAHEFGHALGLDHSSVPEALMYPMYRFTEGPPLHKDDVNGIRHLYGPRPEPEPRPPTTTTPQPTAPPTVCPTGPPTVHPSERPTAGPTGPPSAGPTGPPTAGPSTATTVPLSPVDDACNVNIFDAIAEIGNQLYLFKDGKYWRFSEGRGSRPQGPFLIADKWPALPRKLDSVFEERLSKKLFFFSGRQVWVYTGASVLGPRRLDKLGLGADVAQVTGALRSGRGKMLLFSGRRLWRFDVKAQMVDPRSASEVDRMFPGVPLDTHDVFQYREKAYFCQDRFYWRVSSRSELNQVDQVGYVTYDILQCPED

[1] = listed as NMI 270, hydrochloride monohydrate

**Q.** For `COc1ccc(S(=O)(=O)N(Cc2cccnc2)[C@@H](C(=O)NO)C(C)C)cc1` [MMI 270, N-hydroxy-2(R)-[(4-methoxysulfonyl)(3-picolyl)amino]-3-methylbutaneamide hydrochloride monohydrate], which “concentrations inhibiting activity of a wide range of MMPs” value (wide range of MMPs) is on record?
**A.** Its value is “nM concentrations”.

**Q.** And the “glomerular basement membrane architecture” value (Alport mice; hydrochloride monohydrate)?
**A.** Its value is “near complete restoration of normal glomerular basement membrane architecture; also recorded: prevents or reverses GBM damage”.

**Q.** And the “glomerular basement membrane architecture” value (Alport mice; listed as MMI-270, hydrochloride monohydrate)?
**A.** Its value is “largely restored GBM ultrastructure and function; also recorded: markedly improved glomerular basement membrane architecture”.

**Q.** What about the “glomerular basement membrane architecture” value (Alport mice; [1]) of the same molecule?
**A.** Its value is “markedly improved GBM ultrastructure”.

**Q.** And the “MMP inhibitory effect, MMP-2” value (MMP-2)?
**A.** The value was “inhibits”.

**Q.** And the “MMP inhibitory effect, MMP-12” value (MMP-12; hydrochloride monohydrate)?
**A.** Its value is “inhibits”.

**Q.** What about the “MMP inhibitory effect, MMP-12” value (MMP-12; [1]) of the same molecule?
**A.** The value was “inhibits”.

**Q.** What about the “MMP inhibitory effect, MMP-9” value (MMP-9) of the same molecule?
**A.** The value was “inhibits”.
